Experimental findings from patent US11566007B2, “Ras inhibitors” (Revolution Medicines, Inc., priority 2019, dated 2023) are described below.

The target in one experiment is KRAS G12D (Homo sapiens (Human), UniProt P01116+P62937, G12D). The experiment is described as follows: Ras-Raf (BRAF RBD) disruption / FRET / MOA assay, KRAS G12D. To be noted: Ras-Raf disruption/FRET/MOA assay; class symbols; read-out: KRAS G12D FRET data IC50. It is filed as biochemical. In outline: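 A 10-point, 3-fold dilution series topping at 30 μM final was incubated 3 h at 25° C with the Ras/cyclophilin A/BRAF RBD mixture.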
Chain of KRAS G12D (P01116-2 other isoform, or with tags, fused parts or gaps G12D): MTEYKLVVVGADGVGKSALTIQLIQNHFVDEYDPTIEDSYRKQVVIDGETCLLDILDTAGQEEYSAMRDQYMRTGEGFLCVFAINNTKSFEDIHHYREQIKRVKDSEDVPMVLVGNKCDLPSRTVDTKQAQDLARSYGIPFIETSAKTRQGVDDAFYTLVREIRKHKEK
Chain of KRAS G12D (P62937 whole entry): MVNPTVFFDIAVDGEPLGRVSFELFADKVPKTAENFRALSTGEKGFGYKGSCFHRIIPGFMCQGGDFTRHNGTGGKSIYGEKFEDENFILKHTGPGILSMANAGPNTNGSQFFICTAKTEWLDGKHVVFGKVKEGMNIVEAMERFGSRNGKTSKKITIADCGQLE

In experiment [1] the test system is NCI-H358 cells (K-Ras G12C). The experiment is described as follows: Potency assay: pERK in NCI-H358 cells. It is filed as cell-based, human. To be noted: Homo sapiens, NCI-H358; H358 KRAS G12C; read-out: pERK EC50. The essentials:
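pERK decrease read by AlphaLISA SureFire p-ERK1/2 or In-Cell Western after 4 h compound exposure at 37 °C, 5% CO2.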

For another experiment, the system named is NCI-H358 (K-Ras G12C). The experiment is described as follows: CellTiter-Glo cell viability assay, NCI-H358. It is filed as cell-based, human. Conditions: Homo sapiens, NCI-H358, 120 h, NCI-H358, 5-day treatment; class symbols; read-out: Additional H358 Cell Viability assay data (K-Ras G12C, IC50). In outline: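 Cells seeded, compound added directly, 5-day exposure. Plates to RT ~30 min, CellTiter-Glo luminescence read. Normalized to DMSO avg (x100); 4-parameter logistic fit.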
A general note: In ATP-based viability assays light output follows the ATP content of the culture.

Another experiment concerns the target KRAS Q61H (Homo sapiens (Human), UniProt P01116+P62937, Q61H). Briefly: Ras-Raf (BRAF RBD) disruption / FRET / MOA assay, KRAS Q61H. To be noted: Ras-Raf disruption/FRET/MOA assay; class symbols; read-out: KRAS Q61H FRET data IC50. It is filed as biochemical. In outline: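 Compounds (30 μM top final, 10-point 3-fold dilutions) incubated 3 h at 25° C with nucleotide-loaded Ras, cyclophilin A and BRAF RBD. Detection with 10 nM anti-His Eu-W1024 and 50 nM anti-GST allophycocyanin over another 1.5 h. Lowered TR-FRET ratio relative to DMSO wells gives IC50.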

Some results are limits rather than exact numbers.

The term IC50 denotes the concentration at which inhibition is half-maximal. One may read the EC50 as the concentration at which the effect is half-maximal.

Chain of KRAS Q61H (P01116-2 other isoform, or with tags, fused parts or gaps Q61H): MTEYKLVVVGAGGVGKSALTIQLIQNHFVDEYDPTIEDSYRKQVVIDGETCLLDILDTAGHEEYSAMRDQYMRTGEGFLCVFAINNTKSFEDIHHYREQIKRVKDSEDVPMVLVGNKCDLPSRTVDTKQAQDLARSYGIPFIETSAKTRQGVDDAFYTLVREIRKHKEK
Chain of KRAS Q61H (P62937 whole entry): as the sequence (P62937 whole entry) above

In the case of `C=CC(=O)N1C[C@@H](C)[C@H](N(C)C(=O)N(C)[C@H](C(=O)N[C@H]2Cc3nc(cs3)-c3ccc4c(c3)c(c(-c3cccnc3[C@H](C)OC)n4CC)CC(C)(C)COC(=O)[C@@H]3CCCN(N3)C2=O)C(C)C)C1` (atropisomer, axis not shown) [Example A588], the IC50 fell in the range of 1000 to 10000 nM on KRAS G12D, 10 to 100 nM in the experiment on NCI-H358 (K-Ras G12C) and 100 to 1000 nM at KRAS Q61H. For the same compound, the EC50 in experiment [1] is under 5000 nM.
The matching figures for `C=CC(=O)Nc1cnc(OC[C@H](C(=O)N[C@H]2Cc3cccc(c3)-c3ccc4c(c3)c(c(-c3cccnc3[C@H](C)OC)n4CC)CC(C)(C)COC(=O)[C@@H]3CCCN(N3)C2=O)C(C)C)n1C` (atropisomer, axis not shown) [Example A600]: 1000 to 10000 nM, under 10 nM, 100 to 1000 nM and under 5000 nM.
For `C=CC(=O)N1CCOC2(C1)CN(C(=O)N(C)[C@H](C(=O)N[C@H]1Cc3nc(cs3)-c3ccc4c(c3)c(c(-c3cccnc3[C@H](C)OC)n4CC(F)(F)F)CC(C)(C)COC(=O)[C@@H]3CCCN(N3)C1=O)C(C)C)C2` (atropisomer, axis not shown) [Example A604] the same measures were 1000 to 10000 nM, under 10 nM, 100 to 1000 nM and under 5000 nM.
For `C=CC(=O)N1CCOC2(CCN(C(=O)N(C)[C@H](C(=O)N[C@H]3Cc4cc(CF)cc(c4)-c4ccc5c(c4)c(c(-c4cccnc4[C@H](C)OC)n5CC(F)(F)F)CC(C)(C)COC(=O)[C@@H]4CCCN(N4)C3=O)C(C)C)CC2)C1` (atropisomer, axis not shown) [Example A605] the same measures were 100 to 1000 nM, 10 to 100 nM, 10 to 100 nM and under 5000 nM.
For the compound `C=CC(=O)N1CCOC2(CCN(C(=O)N(C)[C@H](C(=O)N[C@H]3Cc4cccc(c4)-c4ccc5c(c4)c(c(-c4cccnc4[C@H](C)OC)n5CC(F)(F)F)CC(C)(C)COC(=O)[C@@H]4CCCN(N4)C3=O)C(C)C)CC2)C1` (atropisomer, axis not shown) [Example A608], the IC50 at KRAS G12D is 100 to 1000 nM; in the experiment with NCI-H358 (K-Ras G12C) it was 10 to 100 nM; on KRAS Q61H it was 10 to 100 nM. In addition, the EC50 in experiment [1] is under 5000 nM.
Consider `C=CC(=O)N1CCC[C@@H]2CN(C(=O)N(C)[C@H](C(=O)N[C@H]3Cc4nc(cs4)-c4ccc5c(c4)c(c(-c4cccnc4[C@H](C)OC)n5CC)CC(C)(C)COC(=O)[C@@H]4CCCN(N4)C3=O)C(C)C)C[C@@H]21` (atropisomer, axis not shown) [Example A619], for which the figures for the IC50 at KRAS G12D, with NCI-H358 (K-Ras G12C) and on KRAS Q61H were 1000 to 10000 nM, 10 to 100 nM and 100 to 1000 nM, respectively. Further, in experiment [1], the concentration for a half-maximal effect (EC50) was under 5000 nM.
The matching figures for `CCn1c(-c2cccnc2[C@H](C)OC)c2c3cc(ccc31)-c1csc(n1)C[C@H](NC(=O)[C@H](C(C)C)N(C)C(=O)N1CCC3(CC1)CN(C(=O)/C=C/CF)C3)C(=O)N1CCC[C@H](N1)C(=O)OCC(C)(C)C2` (atropisomer, axis not shown) [Example A622]: 100 to 1000 nM, 10 to 100 nM, 10 to 100 nM and under 5000 nM.
The matching figures for `CCn1c(-c2cccnc2[C@H](C)OC)c2c3cc(ccc31)-c1csc(n1)C[C@H](NC(=O)[C@@H](F)COC1CN(C(=O)C#CC(C)(C)N(C)C)C1)C(=O)N1CCC[C@H](N1)C(=O)OCC(C)(C)C2` (atropisomer, axis not shown) [Example A626]: 1000 to 10000 nM, 10 to 100 nM, 100 to 1000 nM and under 5000 nM.
For `CO[C@@H](C)c1ncccc1-c1c2c3cc(ccc3n1CC(F)(F)F)N1CCO[C@@H](C[C@H](NC(=O)[C@H](C(C)C)N3CC[C@@]4(CCN(C(=O)C#CC(C)(C)N(C)C)C4)C3=O)C(=O)N3CCC[C@H](N3)C(=O)OCC(C)(C)C2)C1` (atropisomer, axis not shown) [Example A628], the IC50 on KRAS G12D is over 10000 nM; in the experiment with NCI-H358 (K-Ras G12C) it was 10 to 100 nM; on KRAS Q61H, over 10000 nM. Besides, in experiment [1], the EC50 is under 5000 nM.
